Where two headings read alike, the source gives them in different places.
Assays:
[1] = test system: patients suffering from various kinds of orthostatic hypotension; assay: Effect of intravenous DL-threo-DOPS on blood pressure in patients suffering from various kinds of orthostatic hypotension; format: in vivo, human; details: i.v. drip infusion
Procedure: Under the same condition as in FAP, DL-threo-DOPS was administered intravenously to patients suffering from familial diabetes mellitus, aortitis syndrome, idiopathic orthostatic hypotension, acute pan-dysautonomia and ectopic pineal tumor, respectively. Changes in pulse rate and blood pressure were determined. In the graphs A to D of FIGS. 4, 5, 6, 7 and 8, the abscissa axes indicate time (min.) and the ordinate axes indicate change in pulse rate, maximum blood pressure (mmHg) and minimum blood pressure (mmHg), and drip infusion rate of DL-threo-DOPS (mg/min.), respectively.

FAP patients = assay: Long term oral administration of DL-threo-DOPS in FAP patients (simple blind test, 4 weeks); format: in vivo, human; details: 1.2 g/day oral
Procedure: (3) Long term oral administration of DL-threo-DOPS The clinical trial was carried out according to a simple blind test procedure. […] The patients refrained from taking any drug for one week before administration of DL-threo-DOPS. After 4 weeks of administration period of DL-threo-DOPS,the patients were given placebos containing lactose. […] In the graphs A to F of FIG. […] The results are expressed as mean±S.E.

patients with FAP [2] = format: in vivo, human; details: 600 mg oral
Procedure: (2) Oral administration test of DL-threo-DOPS
The test was carried out by administering orally 600 mg of DL-threo-DOPS to nine persons (4-normal persons and 5 FAP patients). Plasma norepinephrine levels and blood pressure were determined.
In the graphs A to C of FIG. 2, the abscissa axes indicate time (hrs.) and the ordinate axes indicate plasma norepinephrine level (pg/ml), change in maximum blood pressure (mmHg) and minimum blood pressure (mmHg), respectively. The results are expressed as mean±S.E.

patients with FAP [3] = assay: Intravenous drip infusion test of DL-threo-DOPS in normal persons and FAP patients (pulse rate, blood pressure); format: in vivo, human; details: 200 mg i.v. drip infusion over 2 hours
Procedure: (1) Intravenous drip infusion test of DL-threo-DOPS The test was carried out by administering 200 mg of DL-threo-DOPS in 400 ml of isotonic sodium chloride solution over 2 hours to four persons (2 normal persons and 2 FAP patients) by intravenous drip infusion (1.7 mg/min.). Changes in pulse rate and blood pressure were determined. In the graphs A to D of FIG. 1, the abscissa axes indicate time (min.) and the ordinate axes indicate changes in pulse rate, maximum blood pressure (mmHg) and minimum blood pressure (mmHg), and drip infusion rate of DL-threo-DOPS (mg/min.), respectively. In the graphs A to C, the symbol o indicates normal subjects (2 persons) and .cndot., FAP patients (2 persons).

[4] = in a certain case; cited from earlier work
[5] = test system: aromatic L-amino acid decarboxylase; details: in the living body; cited from earlier work
[6] = Comparison of effectiveness of L-isomer and DL-isomer in the pharmacological tests; format: in vivo; details: L-isomer vs DL-isomer
From the text: In general, threo-DOPS exists as optical isomers and there are the L- and D-isomers as well as the racemic DL-isomer. The term "threo-DOPS" used herein means DL-threo-DOPS and L-threo-DOPS.

[7] = Acute toxicity, LD50 in mice; format: in vivo; details: mouse, in vivo
From the text: (§1) Toxicity of threo-DOPS is extremely low. LD50 value in mice is more than 10 g/kg (p.o.) and about 10 g/kg (i.p.).

mice = assay: Acute toxicity, LD50 in mice; format: in vivo
From the text: as §1

orthostatic hypotension = assay: Clinical effect of threo-DOPS on blood pressure, summary of the pharmacological tests; format: in vivo, human
[8] = Clinical observation of side effects; format: in vivo, human
[9] = summary of the pharmacological tests

SMILES: N[C@H](C(=O)O)[C@H](O)c1ccc(O)c(O)c1 (relative stereo) [DL-threo-DOPS, DL-threo-3,4-dihydroxyphenylserine]
- pressor response ([1]; acute pan-dysautonomia, person): Pressor response was observed
- pressor response ([1]; aortitis syndrome, person): Pressor response was observed
- selectivity for type of orthostatic hypotension ([1]; conclusion from cases (1) to (5)): selective effect on the "peripheral" type of orthostatic hypotension
- pressor response ([1]; ectopic pineal tumor, person): Pressor response was not observed
- pressor response ([1]; familial diabetes mellitus, patient A (asymptomatic orthostatic hypotension)): showed pressor response
- pressor response ([1]; idiopathic orthostatic hypotension, person): Pressor response was observed
- activity of daily living (FAP patients): restored
- dizziness and giddiness caused by orthostatic hypotension (FAP patients): mitigated
- side effect (FAP patients): No side effect was observed
- blood pressure at 11 a.m. and 1 p.m. (FAP patients; three patients suffering from orthostatic hypotension, 3 and 5 hours after administration): a significant rise of blood pressure was observed
- change in plasma norepinephrine level (patients with FAP [2]; FAP patients (FIG. 2)): almost parallel with that of blood pressure
- time at which plasma norepinephrine level was restored to the normal level after oral administration (patients with FAP [2]; FAP patients (FIG. 2)): 5 h
- absorption after oral administration (patients with FAP [2]; inferred from the results): absorbed in the intestine
- conversion by aromatic L-amino acid decarboxylase after oral administration (patients with FAP [2]; inferred from the results): converted to (-) norepinephrine
- hypertensive action (patients with FAP [2]; FAP patients (5)): gradual and sustained hypertensive action
- time of peak of hypertensive action after oral administration (patients with FAP [2]; FAP patients (5)): 5 h
- change in blood pressure (patients with FAP [2]; normal subjects (4)): no significant change in blood pressure was observed
- blood pressure response (patients with FAP [3]; FAP patients (2)): a sensitive hypertensive response was observed
- time course of the response (patients with FAP [3]; FAP patients (2)): gradual and sustained
- change in blood pressure (patients with FAP [3]; normal persons (2)): did not change either pulse rate or blood pressure
- change in pulse rate (patients with FAP [3]; normal persons (2)): did not change either pulse rate or blood pressure

SMILES: NC(C(=O)O)C(O)c1ccc(O)c(O)c1 (centres unmarked) [DOPS]
- effect on blood pressure [4]: anti-hypertensive action

SMILES: N[C@H](C(=O)O)[C@H](O)c1ccc(O)c(O)c1 [L-threo-DOPS, L-threo-3,4-dihydroxyphenylserine]
- conversion by aromatic L-amino acid decarboxylase [5]: converted to (-) norepinephrine
- amount for the same effect relative to the DL-isomer [6]: same effect as the DL-isomer in one half the amount
- effectiveness relative to the DL-isomer [6]: about twice as effective as the DL-isomer

SMILES: N[C@H](C(=O)O)[C@H](O)c1ccc(O)c(O)c1 (relative stereo) [threo-DOPS, threo-3,4-dihydroxyphenylserine]
- LD50 ([7]; ip): ~10000 mg/kg
- LD50 ([7]; po): > 10000 mg/kg
- toxicity (mice): extremely low
- effect on orthostatic hypotension (orthostatic hypotension; FAP as model of dysautonomia syndrome): effective on orthostatic hypotension, inducing substantial and sustained elevation of blood pressure
- effect on blood pressure of normal subjects and of patients suffering from central orthostatic hypotension (orthostatic hypotension; [9]): does not have a significant effect on blood pressure
- effect on peripheral orthostatic hypotension (orthostatic hypotension; [9]): selective effect on "peripheral" orthostatic hypotension
- side effect observed clinically [8]: no side effect is observed clinically

From US4330558A, “Pharmaceutical composition and method for treating peripheral orthostatic hypotension” (Sumitomo Chemical Company, Limited, priority 1980, dated 1982)
